Experiments:
ΔppGalNAcT = molecular target: T1, ΔppGalNAcT (Biomphalaria glabrata, UniProt S5S833); assay: GalNAc transfer to acceptor peptide, reversed-phase HPLC at […] nm; format: biochemical; details: 40 nmol UDP-GalNAc in 20 μl, 10 mM MnCl2, 50 mM MES pH 7.0, 37 °C, 90 min, acceptor peptide 20 μg
T1 construct: catalytic part only: amino acids 1-26 and the lectin domain (477-600) removed; Sf9 insect cells, purified

Bge-ppGalNAcT = molecular target: T2, Bge-ppGalNAcT (Biomphalaria glabrata, UniProt S5S833); assay: as above; format: biochemical; details: 40 nmol UDP-GalNAc in 20 μl, 10 mM MnCl2, 50 mM MES pH 7.0, 37 °C, 90 min, acceptor peptide 20 μg
T2 construct: without cytoplasmic tail and transmembrane domain (amino acids 1-26 removed); catalytic plus lectin domain
T2 sequence (S5S833 27-600): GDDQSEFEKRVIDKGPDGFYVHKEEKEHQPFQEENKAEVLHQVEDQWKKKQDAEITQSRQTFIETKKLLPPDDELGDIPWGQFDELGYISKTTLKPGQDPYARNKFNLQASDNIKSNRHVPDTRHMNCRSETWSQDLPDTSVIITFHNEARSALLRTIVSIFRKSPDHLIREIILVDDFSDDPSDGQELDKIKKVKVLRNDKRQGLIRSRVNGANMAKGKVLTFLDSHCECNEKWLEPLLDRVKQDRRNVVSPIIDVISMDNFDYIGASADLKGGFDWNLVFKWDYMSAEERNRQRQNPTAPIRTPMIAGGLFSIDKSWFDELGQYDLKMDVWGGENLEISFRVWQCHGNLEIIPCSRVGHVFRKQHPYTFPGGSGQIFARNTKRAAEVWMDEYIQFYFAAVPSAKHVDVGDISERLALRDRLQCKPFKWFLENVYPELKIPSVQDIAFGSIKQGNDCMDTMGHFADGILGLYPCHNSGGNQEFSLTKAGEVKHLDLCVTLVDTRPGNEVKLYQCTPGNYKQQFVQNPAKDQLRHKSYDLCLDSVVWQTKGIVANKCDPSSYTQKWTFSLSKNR

T1 sequence (S5S833 27-476, stated change not applied): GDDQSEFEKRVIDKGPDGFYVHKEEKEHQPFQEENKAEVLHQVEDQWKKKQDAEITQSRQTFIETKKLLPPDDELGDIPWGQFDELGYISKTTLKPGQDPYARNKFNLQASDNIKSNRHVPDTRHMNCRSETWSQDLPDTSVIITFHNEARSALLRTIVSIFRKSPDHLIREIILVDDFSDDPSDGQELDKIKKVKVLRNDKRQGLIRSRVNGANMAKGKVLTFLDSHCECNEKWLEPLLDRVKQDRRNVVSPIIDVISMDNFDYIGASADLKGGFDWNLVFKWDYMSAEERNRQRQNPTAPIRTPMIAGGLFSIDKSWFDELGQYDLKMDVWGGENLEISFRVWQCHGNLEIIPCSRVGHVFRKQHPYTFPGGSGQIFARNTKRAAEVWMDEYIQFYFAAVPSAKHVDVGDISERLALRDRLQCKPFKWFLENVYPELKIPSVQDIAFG

## O=c1ccn([C@@H]2O[C@H](COP(=O)(O)OP(=O)(O)O)[C@@H](O)[C@H]2O)c(=O)[nH]1 [UDP]
ΔppGalNAcT
  activity at 0.05-0.75 mM UDP: No significant differences between the enzyme expressed with lectin domain and the version without
Bge-ppGalNAcT
  activity at 0.05-0.75 mM UDP: Only for UDP an inhibition effect was experimentally observed.
